Measurements reported in patent publication EP4420661B1, “SMALL MOLECULES TARGETING GLYCOPROTEIN VI AS ANTIPLATELET AGENTS FOR USE IN THE PREVENTION AND/OR TREATMENT OF THROMBOSIS AND ASSOCIATED PATHOLOGIES” (Universidade de Santiago de Compostela, priority 2023, dated 2024).
≈ marks a conversion by molar mass, not a printed value.

How the values were obtained:
[1] = plasmatic stability, human plasma; format: in vitro ADME; settings: for Plasmatic stability: Human plasma
Procedure: (§1) Rat, human, mouse and dog plasma pooled from healthy donors extracted in citrate tubes was employed in the assay.
(§2) […] Then 300µl Acetonitrile were added for precipitating plasma protein, and the plate was centrifuged at 4000 g for 60 min at 4°C.
(§3) Supernatant was taken and analyzed by UPLC/MS/MS for sample quantification. Stationary phase: Reverse phase ACQUITY BEH C18 1.7µm 2.1x50mm (Waters) Mobile phase: 0.1% Formic acid water/0.1% formic acid in acetonitrile Gradient: Table 4: UPLC gradient / Plasmatic stability assay
(§4) The chromatographic equipment employed was an UPLC QSM Waters Acquity. Compound concentrations were calculated from the MS peak areas.

[2] = plasmatic stability, rat plasma; format: in vitro ADME; settings: for Plasmatic stability: Rat plasma
Procedure: as §1, §2, §3, §4

[3] = plasmatic stability, dog plasma; format: in vitro ADME
Procedure: as §1, §2, §3, §4

[4] = solubility by nephelometry; settings: 1% dmso/pbs, 37 °C, aqueous buffer, kinetic from dmso stock
Procedure: Solubility was determined by nephelometry to assess its potential impact on the bioassays at active concentrations.
Then, said compounds were incubated for 2 hours at 37°C and read in a NEPHELOstar Plus (BMG LABTECH).

[5] = metabolic stability, mouse microsomes; format: in vitro ADME
Procedure: Samples were transferred to a microplate and 75 µl Acetonitrile + IS(Rolipram) were added for inactivating the microsomes, and 30 µl of H2O with 0.5% formic acid for improving the chromatographic conditions and kept at 4°C. When all the samples were taken the plate was centrifuged at 46000 g for 30 min at 15°C. Stationary phase: ACQUITY BEH C18 1.7µm 2.1x50mm (Waters) Mobile phase: A: 0.1% formic; B: acetonitrile+0.1% formic acid Gradient: Table 6: UPLC gradient / Metabolic stability assay

[6] = plasmatic stability, mouse plasma; format: in vitro ADME; design: unit not given beside the values
Procedure: as §1, §2, §3, §4

[7] = metabolic stability, dog microsomes; format: in vitro ADME; settings: Dog microsomes
Procedure: (§5) Microsomes from Tebu-bio Xenotech were employed in the assay, having a content of 20 mg/ml of protein. The following quantities were added to each well of a 96-well microplate. Table 6: Metabolic stability assay.
(§6) Plates were incubated at 37°C and 75 µL samples were taken at 0, 10, 20, 40 and 60 minutes.
(§7) Samples were transferred to a microplate and 75 µl Acetonitrile + IS(Rolipram) were added for inactivating the microsomes, and 30 µl of H2O with 0.5% formic acid for improving the chromatographic conditions and kept at 4°C. When all the samples were taken the plate was centrifuged at […] for 30 min at 15°C. Stationary phase: ACQUITY BEH C18 1.7µm 2.1x50mm (Waters) Mobile phase: A: 0.1% formic; B: acetonitrile+0.1% formic acid Gradient: Table 6: UPLC gradient / Metabolic stability assay
(§8) Metabolic stability was calculated from the logarithm of the remaining compound at each of the times evaluated.

[8] = system: human platelets; test: platelet aggregation assay, CRP-induced; format: cell-based; settings: Homo sapiens, Platelet, CRP 1 µg/mL
Procedure: Platelet aggregation assays were carried out to assess the potency of the active compounds as previously described [Barrachina et al. (2021)].
Briefly, human platelets from at least =7 healthy individuals were isolated and washed. Then, the suspension was incubated with the compounds at 10 µM at 37 ∘C for 4 min in a Chrono-log® 490-X aggregometer (Chrono-log Corporation, Havertown, PA, USA). After that, platelets were stimulated with the agonist CRP at 1 µg/mL for 5 min.

[9] = metabolic stability, rat microsomes; format: in vitro ADME; settings: Rat microsomes
Procedure: as §5, §6, §7, §8

[10] = system: human platelets; test: platelet spreading assay on CRP (phalloidin staining, confocal microscopy); format: cell-based; settings: 10µM; CRP 1µg/mL; Figure 4
Procedure: Platelet spreading experiments were carried out to assess the potency of the compounds of formula (I), exemplified by compounds (If)and (Ih).
Platelets can change from a rounded, non-adherent form to adhere and flatten shape when exposed to ligands. This "spreading" effect can lead to the formation of cytoskeletal protein rearrangement. Platelet adhesion and extent of spreading (area covered) can be quantified.
Briefly, human platelets from healthy individuals were isolated and washed. Then, platelets were incubated with the inhibitors at 10µM for 5 min at room temperature and then for 45 min at 37°C in coverslips coated with 1µg/mL of agonist (CRP).
The images of platelet shape given by phalloidin staining were acquired by confocal fluorescence microscopy and the area analyzed by ImageJ [Onselaer et al., (2020)].

[11] = plasma protein binding, Rapid Equilibrium Dialysis (RED), dog; format: in vitro ADME; settings: 4h at 37°C
Procedure: (§9) Plasma from Seralab was employed in the assay and was carried out by employing Rapid Equilibrium Dialysis (RED) from Thermo Scientific.
(§10) The compounds were dissolved at 5 µM in plasma and added to the corresponding insert of the RED device. Dialysis buffer was added to the corresponding insert of the RED device. Plate was incubated for 4h at 37°C.
(§11) After the incubation period 50 µL aliquots of each chamber were transferred to empty vials. 50 µL of dialysis buffer were added to the plasma samples and 50 µL of plasma were added to the buffer samples. 300 µL of acetonitrile were added to all the samples and centrifuged at 4000 rpm 100 µL aliquots of the supernatants were transferred to a LC analysis plate. Samples were analyzed in a UPLC/MS/MS. Stationary phase: Acquity UPLC® BEHC18 1,7 µm (2.1 mm x 50 mm) (Waters). Gradient: A (H2O + 0.1% Formic acid); B (ACN + 0.1% Formic acid); Flow: 0.6mL/min Table 8: UPLC gradient / Protein binding assay
(§12) The chromatographic equipment employed was an ACQUITY UPLC / Xevo TQD System. Compound concentrations were calculated from the MS peak areas. Table 9: Plasma protein binding of the compounds of formula (I) in rat, mice, dogs and humans / (*) low recovery

[12] = system: Plasma protein; test: as above; format: in vitro ADME; settings: 5 µM, 4h at 37°C
Procedure: as §9, §10, §11, §12

[13] = plasma protein binding, Rapid Equilibrium Dialysis (RED), human; format: in vitro ADME; settings: 4h at 37°C
Procedure: as §9, §10, §11, §12

[14] = system: Plasma protein; test: as above; format: in vitro ADME; settings: 5 µM, 4h at 37°C
Procedure: as §9, §10, §11, §12

Work on `O=C(Cc1ccc2c(c1)OCCO2)Nc1nc(-c2ccc3c(c2)CCC(=O)N3)cs1` [Compound (If)] yielded a Plasmatic stability ([1]; 10µM, t 0 min) of 100.0, a Plasmatic stability ([1]; 10µM, t 60 min) of 101.0 and a Plasmatic stability ([1]; 10µM, t 120 min) of 101.7. It also gave a Plasmatic stability ([1]; 10µM, t 360 min) of 101.4, a Plasmatic stability ([1]; 100µM, t 0 min) of 100.0 and a Plasmatic stability ([1]; 100µM, t 60 min) of 104.3. For the same compound, the Plasmatic stability ([1]; 100µM, t 120 min) was 107.4, the Plasmatic stability ([1]; 100µM, t 360 min) was 106.4 and the “plasmatic stability (in words)” value ([1]; human) was “high plasmatic stability”. It also gave a Plasmatic stability ([2]; 10µM, t 0 min) of 100.0, a Plasmatic stability ([2]; 10µM, t 60 min) of 105.5 and a Plasmatic stability ([2]; 10µM, t 120 min) of 105.4. The Plasmatic stability ([2]; 10µM, t 360 min) was 81.6, the Plasmatic stability ([2]; 100µM, t 0 min) was 100.0 and the Plasmatic stability ([2]; 100µM, t 60 min) was 88.8. For the same compound, the Plasmatic stability ([2]; 100µM, t 120 min) was 95.1, the Plasmatic stability ([2]; 100µM, t 360 min) was 65.7 and the “plasmatic stability (in words)” value ([2]; rats) was “high plasmatic stability”. For the same compound, the Plasmatic stability ([3]; 10µM, t 0 min) was 100.0, the Plasmatic stability ([3]; 10µM, t 60 min) was 89.2 and the Plasmatic stability ([3]; 10µM, t 120 min) was 85.1. The Plasmatic stability ([3]; 10µM, t 360 min) was 83.5, the Plasmatic stability ([3]; 100µM, t 0 min) was 100.0 and the Plasmatic stability ([3]; 100µM, t 60 min) was 101.4. It also gave a Plasmatic stability ([3]; 100µM, t 120 min) of 106.5, a Plasmatic stability ([3]; 100µM, t 360 min) of 102.4 and a solubility at 2 h [4] of 61.5 µM (≈ 25.9 µg/mL). For the same compound, the half-life [5] was 1.82 h, the microsomal CLint [5] was 7.09 µL/min/mg and the “% remanent (*)” value ([5]; (*) sampling time 60 min) was 71.6%. For the same compound, the Plasmatic stability ([6]; 10µM, t 0 min) was 100.0, the Plasmatic stability ([6]; 10µM, t 60 min) was 67.8 and the Plasmatic stability ([6]; 10µM, t 120 min) was 41.6. It also gave a Plasmatic stability ([6]; 10µM, t 360 min) of 5.6, a Plasmatic stability ([6]; 100µM, t 0 min) of 100.0 and a Plasmatic stability ([6]; 100µM, t 60 min) of 77.6. The Plasmatic stability ([6]; 100µM, t 120 min) was 57.5, the Plasmatic stability ([6]; 100µM, t 360 min) was 9.6 and the half-life [7] was 5.42 h. The microsomal CLint [7] was 2.17 µL/min/mg, the “% remanent (*)” value ([7]; (*) sampling time 60 min) was 89.2% and the inhibition at 10 µM [8] was 70 ± 19%. For the same compound, the half-life [9] was 1.03 h, the microsomal CLint [9] was 8.89 µL/min/mg and the “% remanent (*)” value ([9]; (*) sampling time 60 min) was 49.9%. The “platelet spreading on CRP (in words)” value [10] was “inhibition of platelet spreading on CRP”, the fraction unbound at 4 h, 5 µM [11] was 0.0015 and the Unbound fraction [12] was 0.15%. For the same compound, the fraction unbound at 4 h, 5 µM [13] was 0.0011 and the Unbound fraction [14] was 0.11%.
